Data on 1 molecule can be found in patent US11285132B2, “Uses of indolinone compounds” (Oncternal Therapeutics, Inc., priority 2016, dated 2022).

Each structure is given as a SMILES string.

The EC50 is the concentration giving half of the maximal effect. In general, IC50 refers to the concentration that inhibits the measured activity by half. Low readings indicate higher potency, high ones lower potency.

Common to all, as to type: cell-based
For one experiment, the target named is T1, EWS-FLI1 (Homo sapiens, UniProt Q01543+Q01844).
T1 construct: EWS (part of EWSR1, Q01844); expressed in transfected cells; host or cells: COS7
T1 sequence (Q01543 220-452 limits assumed, one chain of several): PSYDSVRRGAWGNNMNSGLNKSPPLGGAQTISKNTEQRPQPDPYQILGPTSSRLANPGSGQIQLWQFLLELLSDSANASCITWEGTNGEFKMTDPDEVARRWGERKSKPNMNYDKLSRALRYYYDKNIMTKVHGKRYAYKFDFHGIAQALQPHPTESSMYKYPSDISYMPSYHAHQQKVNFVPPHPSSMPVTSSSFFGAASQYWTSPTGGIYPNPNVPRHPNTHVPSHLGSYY
As to the kind of experiment: EWS-FLI1 / NROB1 reporter-luciferase transcription in COS7 cells. The following applies: COS7 cells transfected with a EWS-FLI1 responsive promoter; read-out: EC50, transcriptional decrease. The source says: TK216 is a first in class, small molecule that directly binds EWS-FLI1 inhibiting the biological activity of ETS-family transcription factor oncoproteins and is currently under clinical investigation in patients with Ewing sarcoma.
TK216 reduced transcriptional activity in COS7 cells co-transfected with EWS-FLI1 and NROB1 reporter-luciferase plasmids which contain EWS-FLI1 DNA-binding sites, as shown in FIG. 3.

In the next experiment the test system is HL-60. Description: 72 hr CellTiter-Glo, AML cell line. The following applies: Homo sapiens.
In a further experiment the test system is MOLM-13. As to the kind of experiment: 72 hr CellTiter-Glo, AML cell line. The following applies: Homo sapiens.
For the next experiment, the system named is TMD-8. As to the kind of experiment: 72 hr CellTiter-Glo, DLBCL cell line. The following applies: Homo sapiens, TMD8. On the technique in general: Cellular ATP, detected with luciferase, serves as a proxy for viable cell number.
For the next experiment, the system named is U2932. Description: 72 hr CellTiter-Glo, DLBCL cell line. The following applies: Homo sapiens.
For a further experiment, the system named is DLBCL cell lines. As to the kind of experiment: Apoptosis by cleaved-Caspase 3 detection. The following applies: various concentrations, 18 h. On the procedure:
Cells were treated with various concentrations of TK216 for 18 h and apoptosis was assessed by detection of cleaved-Caspase 3.

Experiment [1] relates to DLBLC cell lines (TMD8, HBL1, U2932). As to the kind of experiment: Dose-effect testing in combination with venetoclax. The source says:
In each of FIGS. 13-15, the top curve (×) was for the combination therapy, the middle curve (⊚) was for TK216, and the bottom curve (+) was for venetoclax. FIG. 13 is a dose-effect curve for TK216 in combination with venetoclax in the TMD8 cell line. FIG. 14 is a dose-effect curve for TK216 in combination with venetoclax in the U2932 cell line. FIG. 15 is a dose-effect curve for TK216 in combination with venetoclax in the HLB1 cell line.

Experiment [2] relates to 6 DLBCL cell lines (TMD8, U2932, HBL1, OCI-LY-18, WSU-DLCL2, DOHH2). As to the kind of experiment: Cell cycle analysis and Annexin V staining. The following applies: 24, 48, 72 h. On the procedure:
FIGS. 18A and 18B show apoptosis and cell cycle distribution of TK-216 in DLBCL cell lines. FIG. 18A) Induction of apoptosis in DLBCL cell lines exposed to TK-216 (500 nM) for 24, 48 or 72 hrs. In the figures are shown four representative (two ABC and two GCB) results. FIG. 18B) Cell cycle distribution in DLBCL cell lines treated with 500 nM of TK-216 for 24, 48 or 72 hrs. In the figure, two representative (one ABC and one GCB) results are shown. DMSO treatment was used as a control.
56 lymphoma cell lines [27 diffuse large B cell lymphoma (DLBCL); 10 mantle cell lymphoma; 6 marginal zone lymphoma; 5 anaplastic large T-cell lymphoma; 8 others] were exposed to TK-216 increasing doses for 72 h using a Tecan D300e Digital Dispenser and 384 well plates. Cell proliferation was measured with MTT. In vivo study was done in NOD-SCID mice; treatments were started with approximately sc 60 mm3 tumor volumes. Sensitivity was not affected by the lymphoma cell of origin (B vs T; activated B cell type DLBCL versus germinal center type DLBCL) or MYC and TP53 status. There was a non-statistically significant trend for lower sensitivity in cell lines bearing BCL2 chromosomal translocation (P=0.07, DLBCL only; P=0.06, all cell lines).

The next experiment concerns two MCL cell lines. As to the kind of experiment: Combination with lenalidomide in MCL cell lines. On the procedure:
Cell lines were exposed to YK-4-279 or TK-216, alone or in combination with other compounds, for 72 h using a Tecan D300e Digital Dispenser and 96 well plates. Cell proliferation was measured with MTT. Synergy was determined with the Chou-Talalay combination index. Gene expression profiling (GEP) was performed with the Illumina HumanHT 12 Expression BeadChips. In vivo studies were done in NOD-SCID mice and treatments started with 60 mm3 tumor volumes sc.
Since lenalidomide is active in mantle cell lymphoma (MCL), the synergism of the combination of TK-216 and lenalidomide was confirmed also in two MCL cell lines.

A further experiment relates to IRF4. As to the kind of experiment: Protein levels in cells. To be noted: similarly to lenalidomide. The source says:
(§1) With the aim to understand the mechanism of action of YK-4-279 and TK-216, the baseline RNA expression levels of the different ETS factors were correlated with sensitivity to the drugs. SPIB was the gene presenting the most significant negative correlation with both YK-4-279 and TK-216, especially among the ABC DLBCL cell lines (P<0.05). SPIB is a known oncogene for ABC DLBCL (Lenz et al, PNAS 2008) and is involved in the response to lenalidomide in ABC DLBCL (Yang et al, Cancer Cell 2012). YK-4-279 inhibits the binding of EWS1-FLI1 to the helicases RHA and DDX5 (Selvanathan et al, PNAS 2012). Thus, it was assessed whether YK-4-279 and TK-216 can have a similar effect on SPIB and whether they induce cellular effects similar to lenalidomide. […] In ABC DLBCL, the ETS inhibitor YK-4-279 and its clinical derivative TK-216 interfere with SPIB and helicases involved in RNA editing. Moreover, both compounds act similarly to lenalidomide inhibiting IRF4 and upregulating IRF7 and synergize with the IMID in both ABC DLBCL and MCL.

Another experiment deals with IRF7. Description: Protein levels in cells. The following applies: similarly to lenalidomide.
From the text: as §1

Experiment [3] has as its system myeloid cell lines (HL-60, Kasumi-1, ML-2, MOLM-13, MOLM-16, and THP-1). As to the kind of experiment: Viability and apoptosis in myeloid cell lines. From the text: TK216 also had anti-proliferative effects, causes cell cycle arrest, and induces apoptosis in a panel of AML and DLBCL cell lines with deregulated ETS family members. […] In vivo efficacy studies in xenograft models of DLBCL indicated anti-tumor activity consistent with in vitro findings, confirming the utility and efficacy of TK216 in the treatment of AML and DLBCL by targeting the aberrant expression and translocations in the ETS-family of transcription factors, which contribute to the pathogenesis of the disease.

Turning to `O=C(CC1(O)C(=O)Nc2c(Cl)ccc(Cl)c21)c1ccc(C2CC2)cc1` (stereo not shown) [TK216, 4,7-Dichloro-3-(2-(4-cyclopropylphenyl)-2-oxoethyl)-3-hydroxyindolin-2-one], the EC50 at EWS-FLI1 is < 100 nM. In addition, the IC50 stood at 363 nM in the experiment with HL-60, 228 nM in the experiment on MOLM-13, 152 nM in the experiment on TMD-8 and 127 nM in the experiment on U2932. Besides, in the experiment on DLBCL cell lines, the “apoptosis (cleaved-Caspase 3)” value is “induced apoptosis”. In addition, the “combination effect with venetoclax, dose-effect” value in experiment [1] is “synergistic effect across doses”. In addition, in experiment [2], the “cell cycle and apoptosis” value was “time-dependent apoptosis was preceded by a G2/M arrest”. Also, the “combination of TK-216 and lenalidomide” value in the experiment with two MCL cell lines is “synergism”. Further, in the experiment on IRF4, the “IRF4 protein in cells” value is “decreased IRF4”. Besides, the “IRF7 protein in cells” value with IRF7 is “upregulated IRF7”. Also, the cellular viability result in experiment [3] is listed as “decrease in cellular viability”. In addition, in [3] (48 hours), the apoptosis of cells result is on record as “induced dose-dependent apoptosis”.
